One data set has as its system MAGL. Particulars: cited from earlier work.
For a further data set, the target named is T1, hMAGL (Homo sapiens, UniProt Q99685).
T1 sequence (Q99685 1-303): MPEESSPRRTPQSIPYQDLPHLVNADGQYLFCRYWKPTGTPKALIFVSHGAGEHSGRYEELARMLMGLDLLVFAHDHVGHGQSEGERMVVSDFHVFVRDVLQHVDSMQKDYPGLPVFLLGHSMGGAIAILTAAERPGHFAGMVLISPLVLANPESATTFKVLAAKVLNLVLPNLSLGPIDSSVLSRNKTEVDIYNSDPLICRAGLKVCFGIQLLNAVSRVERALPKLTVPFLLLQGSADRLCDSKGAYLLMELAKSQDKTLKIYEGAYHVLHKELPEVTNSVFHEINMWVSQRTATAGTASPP
As to the kind of experiment: Human MAGL inhibition assay (Cayman's assay kit).

The target in another data set is T2, hFAAH (Homo sapiens, UniProt O00519).
T2 sequence (O00519 1-579): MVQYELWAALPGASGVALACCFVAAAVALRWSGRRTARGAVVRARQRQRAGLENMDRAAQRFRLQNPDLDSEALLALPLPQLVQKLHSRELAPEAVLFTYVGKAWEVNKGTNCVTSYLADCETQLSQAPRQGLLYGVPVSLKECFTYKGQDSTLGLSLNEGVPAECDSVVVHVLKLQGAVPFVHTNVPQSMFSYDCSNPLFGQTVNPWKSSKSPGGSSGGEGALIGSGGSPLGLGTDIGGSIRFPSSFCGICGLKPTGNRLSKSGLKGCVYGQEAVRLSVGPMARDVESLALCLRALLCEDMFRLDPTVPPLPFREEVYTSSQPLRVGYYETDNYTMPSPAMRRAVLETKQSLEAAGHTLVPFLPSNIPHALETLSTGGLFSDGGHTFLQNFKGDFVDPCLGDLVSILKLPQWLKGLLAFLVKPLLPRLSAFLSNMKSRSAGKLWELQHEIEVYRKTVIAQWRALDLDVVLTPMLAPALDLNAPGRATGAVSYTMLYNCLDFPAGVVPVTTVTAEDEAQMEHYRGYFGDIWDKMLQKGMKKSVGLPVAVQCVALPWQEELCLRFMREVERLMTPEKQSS
As to the kind of experiment: Human FAAH inhibition assay (Cayman's assay kit). Particulars: IC50, mean ± SEM (n = 3).

Data set [1] has as its system formalin-induced nociception. As to the kind of experiment: Formalin-induced analgesic (nociception) test. In kind it is in vivo, Male Wistar rats. Particulars: 100 mg/kg i.p., 30 min before formalin. The text has this: The formalin-induced analgesic test is an extensively acknowledged animal nociception model. In order to evaluate both central and peripheral effects of the compound (20), formalin-induced nociception model was selected for analgesic activity. The formalin induced behavioral response comprises two typical phases, stage I and II. Stage I persists up to five minutes after formalin injection and is characterized by acute pain with vigorous licking and biting of the injected site. Stage I consists the action formalin on afferent C-fiber nociceptors. While Stage II starts 10–30 min after formalin injection and persists till 60 min, characterized by periodic licking and biting of the injected site. Stage II imitates the action of central sensitization of the spinal dorsal horn neurons.
Figure 5 Formalin-induced analgesic test; a dose of the test compound 20 (5, 10, 30, and 50 mg/kg, p.o, suspended in 0.5% CMC) was administered 4 h before formalin injection (50 µL, 2.5%). Reference drug, gabapentin (100 mg/kg, i.p, dissolved in 0.9% normal saline) was injected 30 min before formalin injection. Total paw licking and biting duration, Stage I (white bar, 0–5 min) and stage II (black bar, 10–30 min) was recorded as a measure of pain behavior. Data is represented as mean ± SEM from a group of 10 animals. * p < 0.05, ** p < 0.01, p > 0.05 (NS, nonsignificant) vs. control (vehicle). GBP: Gabapentin; D5, D10, D30, andD50 are the dose concentrations of test compound 20.
Male Wistar rats (180–200 g) were obtained with the permission of IAEC (proposal number 1048) from Jamia Hamdard, New Delhi, India. The results of test compound 20 and reference drug, Gabapentin (GBP), were statistically compared with the control group.

A further data set has as its system FAAH. On the set-up: method as in PMID 15456244. Particulars: read-out: FAAH IC50, value reported; cited from earlier work.
Where [2] appears, read: earlier work of the authors' group.

Each structure is given as a SMILES string. Read-outs that look alike come from different tables or passages of the source. A value given as a limit tells only on which side of the number the result lay.

As for `O=C(N1CCN(C(c2ccccc2)c2ccccc2)CC1)n1nnc2ccccc21` [ML30], the IC50 in the data set on MAGL was 0.54 nM.

Regarding `Cc1ccccc1N1CC(c2nc3ccccc3o2)CC1=O` (centres unmarked) [Compound 13, 4-(Benzo[d]oxazol-2-yl)-1-(o-tolyl)pyrrolidin-2-one], the melting point was 162 to 164 °C. The compound further yielded an IC50 on hMAGL of 85000 ± 1500 nM.

Consider `Cc1ccc(N2CC(c3nc4ccccc4o3)CC2=O)cc1` (centres unmarked) [Compound 14, 4-(Benzo[d]oxazol-2-yl)-1-(p-tolyl)pyrrolidin-2-one], for which the melting point lay within 164 to 166 °C. This compound also yielded an IC50 against hMAGL of 72000 ± 2100 nM.

As to `Cc1ncccc1-c1cc(F)cc(N2C[C@H](N3CCN(c4ncccn4)CC3)CC2=O)c1` [R(3t)], the IC50 in the data set with MAGL is 3.6 nM.

Regarding `O=C(Cn1nnc2ccccc21)Nc1ccc(-c2nc3ccccc3s2)cc1` [ZINC24092691], in the data set with MAGL (setting [2]), the IC50 was 10 nM.

As to `O=C(Cn1nnc2ccccc21)Nc1ccc(-c2nc3ccccc3s2)cc1` [ZINC24092691 analogue], the IC50 in the data set on MAGL (setting [2]) was 6.5 nM.

With `O=C1CC(c2nc3ccccc3o2)CN1c1ccccc1` (centres unmarked) [Compound 12, 4-(Benzo[d]oxazol-2-yl)-1-phenylpyrrolidin-2-one], the melting point fell in the range of 148 to 150 °C. This compound also showed an IC50 on hMAGL of more than 100000 nM.

As to `COc1ccc(N2CC(c3nc4ccccc4[nH]3)CC2=O)cc1` (centres unmarked) [compound 25], in the data set on MAGL (setting [2]), the IC50 was 9.4 nM.

`O=C(O[C@H](CO)C(F)(F)F)N1C[C@@H]2C(c3ccn(-c4ccc(F)cc4)n3)[C@@H]2C1` (some centres unmarked) [PF-06795071]: the IC50 with MAGL is 3 nM.

`O=C1CC(c2nc3ccccc3o2)CN1c1ccc(F)c(Cl)c1` (centres unmarked) [Compound 16, 4-(Benzo[d]oxazol-2-yl)-1-(3-chloro-4-fluorophenyl)pyrrolidin-2-one] displayed a melting point of 187 to 189 °C. Moreover, on hMAGL, the IC50 came out at 34 ± 1.7 nM. The same compound showed an IC50 against hFAAH of 25000 ± 2300 nM.

On to `O=C1CC(c2nc3ccccc3o2)CN1c1ccc(O)cc1` (centres unmarked) [Compound 17, 4-(Benzo[d]oxazol-2-yl)-1-(4-hydroxyphenyl)pyrrolidin-2-one], for which the melting point lay within 242 to 245 °C. This compound had an IC50 against hMAGL of 62000 ± 2700 nM.

Compound `O=C1CC(c2nc3ccccc3o2)CN1Cc1ccccc1` (centres unmarked) [Compound 11, 4-(Benzo[d]oxazol-2-yl)-1-benzylpyrrolidin-2-one] gave a melting point of 160 to 162 °C. The compound further registered an IC50 at hMAGL of more than 100000 nM.

For `COc1ccc(N2CC(c3nc4ccccc4o3)CC2=O)cc1` (centres unmarked) [Compound 18, 4-(Benzo[d]oxazol-2-yl)-1-(4-methoxyphenyl)pyrrolidin-2-one], the melting point lay in the range of 177 to 179 °C. On hMAGL, the IC50 was 42 ± 1.5 nM. The compound also showed an IC50 at hFAAH of 37000 ± 2200 nM.

In the case of `COc1nn(-c2ccc(NC(=O)OCc3ccccc3)c(C)c2)c(=O)o1` [CAY10499, reference compound], the IC50 was 415 ± 3.2 nM on hMAGL (read-out: hMAGL, IC50, mean ± SEM (n = 3)) and 144 nM in the data set on MAGL.

`O=C(N1CCN(C(c2ccc(F)cc2)c2ccc(F)cc2)CC1)n1cncn1` [SAR629]: in the data set on MAGL, the IC50 is 1.1 nM.

For `O=C(Oc1ccc([N+](=O)[O-])cc1)N1CCC(C(O)(c2ccc3c(c2)OCO3)c2ccc3c(c2)OCO3)CC1` [JZL184], in the data set with MAGL, the IC50 was […].

Compound `O=C1CC(c2nc3ccccc3o2)CN1c1ccc(Cl)cc1` (centres unmarked) [Compound 15, 4-(Benzo[d]oxazol-2-yl)-1-(4-chlorophenyl)pyrrolidin-2-one] gave a melting point of 174 to 176 °C. The IC50 at hMAGL came to 65 ± 3.2 nM. The compound further registered an IC50 against hFAAH of 28000 ± 1800 nM.

With `NCC1(CC(=O)O)CCCCC1` [GBP, Gabapentin, reference compound], the “paw licking and biting, Stage II” value in data set [1] (vs control) is “significant reduction of paw licking and biting”. Also, in data set [1] (vs control (0.5% CMC)), the “analgesic effect, Stage I (acute nociception)” value was “little analgesic effects”.

Consider `CCCCNC(=O)Oc1ccc(C2=NCCS2)cc1` [SPB01403], for which the IC50 with MAGL is 31000 nM.

For `O=C(OC(C(F)(F)F)C(F)(F)F)N1CCC(C(O)(c2ccc3c(c2)OCO3)c2ccc3c(c2)OCO3)CC1` [KML29], in the data set on MAGL, the IC50 is 3.6 nM and the “selectivity for MAGL over FAAH” value is reported as “more than 10,000 fold”.

Take `O=C(Nc1cccc(-c2ccccc2)c1)OC1CCCCC1` [URB602]: the IC50 in the data set with MAGL was 28000 nM.

`NC(=O)c1cccc(-c2cccc(OC(=O)NC3CCCCC3)c2)c1` [URB597]: in the data set with FAAH, the IC50 is 4.6 nM.

As to `O=C(N1CCC(C(c2ccc3c(c2)OCO3)c2ccc3c(c2)OCO3)CC1)n1cncn1` [JJKK-048, {4-[bis-(benzo[d][1,3]dioxol-5-yl)methyl]-piperidin-1-yl}(1H-1,2,4-triazol-1-yl)methanone], in the data set on MAGL, the IC50 was 0.363 nM and the “selectivity for MAGL over FAAH” value is on record as “more than 10,000 fold”.

For orientation: melting point means the temperature, or range, at which the solid turns liquid.

Values taken from PMC8074287, “Analgesic and Anticancer Activity of Benzoxazole Clubbed 2-Pyrrolidinones as Novel Inhibitors of Monoacylglycerol Lipase” (Molecules, 2021).
